Results on 7 molecules are retold here after US8580794B2 (AbbVie Inc., priority 2009, dated 2013).

SMILES strings stand for the structures. Some results are limits rather than exact numbers.

The target of this test is GST-Bc1-2 (Homo sapiens, UniProt P10415). Kind of test: Time Resolved-Fluorescence Resonance Energy Transfer (TR-FRET) Bcl-2 binding assay with F-Bak peptide probe. As to conditions: GST-Bcl-2 1 nM, F-Bak probe 100 nM, Tb-anti-GST 1 nM; '<' = below limit of detection; read-out: TR-FRET Bcl-2 Binding Ki.
Chain of GST-Bc1-2 (P10415 whole entry): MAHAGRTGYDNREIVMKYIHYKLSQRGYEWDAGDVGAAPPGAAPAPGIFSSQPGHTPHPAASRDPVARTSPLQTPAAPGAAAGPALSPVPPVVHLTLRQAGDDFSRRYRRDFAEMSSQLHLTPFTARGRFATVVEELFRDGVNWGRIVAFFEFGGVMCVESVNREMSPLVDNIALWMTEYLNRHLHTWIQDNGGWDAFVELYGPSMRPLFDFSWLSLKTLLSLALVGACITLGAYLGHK
Usually Ki stands for a measure of affinity in units of concentration, obtained from inhibition or displacement. In the case of `CC1(C)CCC(CN2CCN(c3ccc(C(=O)NS(=O)(=O)c4ccc(NCCC#N)c([N+](=O)[O-])c4)c(Oc4cnc5[nH]ccc5c4)c3)CC2)=C(c2ccc(Cl)cc2)C1` [Example 62, 4-(4-{[2-(4-chlorophenyl)-4,4-dimethylcyclohex-1-en-1-yl]methyl}piperazin-1-yl)-N-({4-[(2-cyanoethyl)amino]-3-nitrophenyl}sulfonyl)-2-(1H-pyrrolo[2,3-b]pyridin-5-yloxy)benzamide], the inhibitory constant (Ki) is less than 0.01 nM.

For `CC1(C)CC(c2ccc(Cl)cc2)=C(CN2CCN(c3ccc(C(=O)NS(=O)(=O)c4ccc(N[C@H]5CC[C@@H](N6CCOCC6)CC5)c([N+](=O)[O-])c4)c(Oc4cnc5[nH]ccc5c4)c3)CC2)CO1` [Example 63, Cis-4-(4-{[4-(4-chlorophenyl)-6,6-dimethyl-5,6-dihydro-2H-pyran-3-yl]methyl}piperazin-1-yl)-N-({4-[(4-morpholin-4-ylcyclohexyl)amino]-3-nitrophenyl}sulfonyl)-2-(1H-pyrrolo[2,3-b]pyridin-5-yloxy)benzamide], the inhibitory constant (Ki) was less than 0.01 nM.

For the molecule `CC1(C)CCC(CN2CCN(c3ccc(C(=O)NS(=O)(=O)c4ccc(N[C@H]5CC[C@H](N(CC6CC6)CC6CC6)CC5)c([N+](=O)[O-])c4)c(Oc4cnc5[nH]ccc5c4)c3)CC2)=C(c2ccc(Cl)cc2)C1` [Example 64, Trans-N-{[4-({4-[bis(cyclopropylmethyl)amino]cyclohexyl}amino)-3-nitrophenyl]sulfonyl}-4-(4-{[2-(4-chlorophenyl)-4,4-dimethylcyclohex-1-en-1-yl]methyl}piperazin-1-yl)-2-(1H-pyrrolo[2,3-b]pyridin-5-yloxy)benzamide], the Ki was less than 0.01 nM.

For the molecule `CN1CCC(CNc2ccc(S(=O)(=O)NC(=O)c3ccc(N4CCN(CC5=C(c6ccc(Cl)cc6)CC(C)(C)CC5)CC4)cc3Oc3cnc4[nH]ccc4c3)cc2[N+](=O)[O-])CC1` [Example 65, 4-(4-{[2-(4-chlorophenyl)-4,4-dimethylcyclohex-1-en-1-yl]methyl}piperazin-1-yl)-N-[(4-{[(1-methylpiperidin-4-yl)methyl]amino}-3-nitrophenyl)sulfonyl]-2-(1H-pyrrolo[2,3-b]pyridin-5-yloxy)benzamide], the Ki is less than 0.01 nM.

In the case of `CC1(C)CCC(CN2CCN(c3ccc(C(=O)NS(=O)(=O)c4ccc(NCC5COCCN5)c([N+](=O)[O-])c4)c(Oc4cnc5[nH]ccc5c4)c3)CC2)=C(c2ccc(Cl)cc2)C1` (stereo not shown) [Example 66, 4-(4-{[2-(4-chlorophenyl)-4,4-dimethylcyclohex-1-en-1-yl]methyl}piperazin-1-yl)-N-({4-[(morpholin-3-ylmethyl)amino]-3-nitrophenyl}sulfonyl)-2-(1H-pyrrolo[2,3-b]pyridin-5-yloxy)benzamide], the Ki was less than 0.01 nM.

In the case of `CN1CCN(Nc2ccc(S(=O)(=O)NC(=O)c3ccc(N4CCN(CC5=C(c6ccc(Cl)cc6)CC(C)(C)OC5)CC4)cc3Oc3cnc4[nH]ccc4c3)cc2[N+](=O)[O-])CC1` [Example 67, 4-(4-{[4-(4-chlorophenyl)-6,6-dimethyl-5,6-dihydro-2H-pyran-3-yl]methyl}piperazin-1-yl)-N-({4-[(4-methylpiperazin-1-yl)amino]-3-nitrophenyl}sulfonyl)-2-(1H-pyrrolo[2,3-b]pyridin-5-yloxy)benzamide], the inhibition constant (Ki) is less than 0.01 nM.

In the case of `CC1(C)CCC(CN2CCN(c3ccc(C(=O)NS(=O)(=O)c4ccc(OCC#CCN5CCOCC5)c([N+](=O)[O-])c4)c(Oc4cnc5[nH]ccc5c4)c3)CC2)=C(c2ccc(Cl)cc2)C1` [Example 68, 4-(4-{[2-(4-chlorophenyl)-4,4-dimethylcyclohex-1-en-1-yl]methyl}piperazin-1-yl)-N-({4-[(4-morpholin-4-ylbut-2-ynyl)oxy]-3-nitrophenyl}sulfonyl)-2-(1H-pyrrolo[2,3-b]pyridin-5-yloxy)benzamide], the Ki amounted to 0.012 nM.
